What was measured:
[1] = target: T1, BTK (Homo sapiens, UniProt Q06187); assay: Assay to determine activity against BTK; type: biochemical; details: 1 mM ATP, 2 nM BTK, 90 minutes at room temperature
T1 construct: purchased Cama
Protocol: Solutions of compounds (test or control) in DMSO were prepared at the desired concentrations, and serially diluted to 11 concentrations by 3-fold dilution in 384pp-plate using TECAN EVO200. 20 nL of stock were transferred to 384 plate using Echo550. DMSO was used as vehicle control.
(BTK was obtained from Cama; FLPeptide2 was obtained from PerkinElmer and Ibrutinib was obtained from Selleck.) 5 μL of ATP solution were added to each well, followed by addition of 15 μL of BTK solution to initiate the reaction. (Note the final volume of each well was 20 μL containing MgCl2 (10 mM), Brij-35 (0.01%), DTT (2 mM), BSA (0.05%), EGTA (1 mM), HEPE (pH7.5) (50 mM), FLPeptide (1.5 uM), ATP (1 mM) and BTK (2 nM).
The plates were incubated at room temperature for 90 minutes and then stopping buffer added (75 μL, containing 0.5 M EDTA) to terminate the reaction. Samples from each well were analyzed using EZ reader. The % remaining activity was calculated using read conversion ratio (CR) according to the equation: […]
XLFit (equation 201) was used to calculate IC50's by floating both bottom and top.

[2] = test system: BTK in RAMOS B cells; assay: Assay to determine BTK activity in RAMOS B cells (anti-IgM, FLIPR Calcium 6); type: cell-based; details: anti-IgM EC80, calcium readout
Protocol: On the day before assay, Ramos B cells were plated in plating medium (RPMI1640 medium containing 1% FBS and 1× pencillin-streptomycin). On the day of the assay, 2× dye solution was prepared following the manual of the FLIRP Calcium 6 Assay Kit: Dilute the dye with assay buffer (20 mM HEPES in IX HBSS, pH7.4); Add probenecid to the final concentration of 5 mM; vortex vigorously for 1-2 minutes. Cells were collected by centrifuging, and the pellet was re-suspended in plating medium. After counting, cells were re-suspended at a density of 3×10^6/ml in plating medium. Equal volume of 2× dye solution was added to the cell suspension. Cells were then plated at 20 μl/well into a 384-well poly-D-lysine coated plate. Plate was centrifuged at 1000 rpm for 3 minutes and then incubated at 37° C. for 2 hours followed by an additional 15-minute incubation at 25° C. Compounds were prepared at 3× concentration in dilution buffer (20 mM HEPES and 0.1% BSA in 1×HBSS, pH 7.4). Serially diluted compound was transferred from source plate to a 384-well compound plate by using an Echo 550 (Labcyte). 20 μl/well compound dilution buffer was added to the compound plate and mixed on plate shaker for 2 mins. 4× EC80 of Anti-IgM (Jackson ImmunoResearch) was prepared in dilution buffer and 20 μl/well was added to a new 384-well compound plate. After 60 mins of incubation at 25° C. in the dark; cell plate, compound plate containing 4×EC80 of anti-IgM and FLIPR tips were placed into FLIPR (Molecular Devices). 10 ul/well of 4×EC80 anti-IgM was transferred to the cell plate by FLIPR. Plates were read for 160 sec with 1 sec interval.

T1 sequence (Q06187 whole entry): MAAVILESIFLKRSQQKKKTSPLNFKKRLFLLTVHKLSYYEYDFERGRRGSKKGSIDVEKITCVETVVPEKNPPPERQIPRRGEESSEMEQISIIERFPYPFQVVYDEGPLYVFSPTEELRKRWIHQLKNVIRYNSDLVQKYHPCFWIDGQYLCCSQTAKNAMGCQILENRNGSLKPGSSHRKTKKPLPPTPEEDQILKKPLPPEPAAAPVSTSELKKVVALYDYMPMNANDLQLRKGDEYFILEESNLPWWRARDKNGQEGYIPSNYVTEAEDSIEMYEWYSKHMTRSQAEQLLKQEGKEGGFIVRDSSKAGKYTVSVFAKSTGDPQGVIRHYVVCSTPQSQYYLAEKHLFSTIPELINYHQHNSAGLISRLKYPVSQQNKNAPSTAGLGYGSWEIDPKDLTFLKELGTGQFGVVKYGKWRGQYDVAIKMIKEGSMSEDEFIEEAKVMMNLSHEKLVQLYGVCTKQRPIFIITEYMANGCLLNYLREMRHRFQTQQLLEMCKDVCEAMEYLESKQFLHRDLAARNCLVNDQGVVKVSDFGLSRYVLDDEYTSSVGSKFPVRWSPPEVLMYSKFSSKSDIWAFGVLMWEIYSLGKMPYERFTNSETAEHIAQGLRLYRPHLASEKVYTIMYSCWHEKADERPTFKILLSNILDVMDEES

| IC50 [1] | IC50 ([2]; Homo sapiens, Ramos) | IC50 [2] | SMILES |
| --- | --- | --- | --- |
| 10 to 100 nM | ≥ 100 nM | – | C=CC(=O)N1CCc2c(cccc2-c2c(F)cc(C(N)=O)c3[nH]c4c(c23)CC2(CCOC2)CC4)C1 (stereo not shown) [Compound 7-17, 5-(2-acryloyl-1,2,3,4-tetrahydroisoquinolin-5-yl)-6-fluoro-1,2,4,4′,5′,9-hexahydro-2′H-spiro[carbazole-3,3′-furan]-8-carboxamide] |
| 10 to 100 nM | – | ≥ 100 nM | C=CC(=O)N1CCc2c(cccc2-c2c(F)cc(C(N)=O)c3[nH]c4c(c23)CC2(CCOC2)CC4)C1 (stereo not shown) [Compound 7-18, 5-(2-acryloyl-1,2,3,4-tetrahydroisoquinolin-5-yl)-6-fluoro-1,2,4,4′,5′,9-hexahydro-2′H-spiro[carbazole-3,3′-furan]-8-carboxamide] |
| 10 to 100 nM | ≥ 100 nM | – | C=CC(=O)N1CCc2c(cccc2-c2c(F)cc(C(N)=O)c3[nH]c4c(c23)CC2(CCOCC2)CC4)C1 [Compound 7-19, 5-(2-acryloyl-1,2,3,4-tetrahydroisoquinolin-5-yl)-6-fluoro-1,2,2′,3′,4,5′,6′,9-octahydrospiro[carbazole-3,4′-pyran]-8-carboxamide] |
| 10 to 100 nM | 10 to 100 nM | – | C=CC(=O)N[C@H]1C[C@H](F)CN(c2c(F)cc(C(N)=O)c3[nH]c4c(c23)CC2(CC4)CC2)C1 [Compound 7-22, 5-((3S,5S)-3-acrylamido-5-fluoropiperidin-1-yl)-6-fluoro-1,2,4,9-tetrahydrospiro[carbazole-3,1′-cyclopropane]-8-carboxamide] |
| < 10 nM | < 10 nM | – | CC#CC(=O)N[C@H]1C[C@H](F)CN(c2c(F)cc(C(N)=O)c3[nH]c4c(c23)CC2(CC4)CC2)C1 [Compound 7-23, 5-((3S,5S)-3-(but-2-ynamido)-5-fluoropiperidin-1-yl)-6-fluoro-1,2,4,9-tetrahydrospiro[carbazole-3,1′-cyclopropane]-8-carboxamide] |
| < 10 nM | – | 10 to 100 nM | C=CC(=O)N1CCc2c(cccc2-c2c(F)cc(C(N)=O)c3[nH]c4c(c23)CC2(CC4)CC2)C1 [Compound 7-24, 5-(2-acryloyl-1,2,3,4-tetrahydroisoquinolin-5-yl)-6-fluoro-1,2,4,9-tetrahydrospiro[carbazole-3,1′-cyclopropane]-8-carboxamide] |
| ≥ 100 nM | – | ≥ 100 nM | C=CC(=O)N1CCc2c(cccc2-c2c(F)cc(C(N)=O)c3[nH]c4c(c23)CC2(CC4)CC2)C1 [Compound 7-25, 5-(2-acryloyl-1,2,3,4-tetrahydroisoquinolin-5-yl)-6-fluoro-1,2,4,9-tetrahydrospiro[carbazole-3,1′-cyclopropane]-8-carboxamide] |
| ≥ 100 nM | ≥ 100 nM | – | C=CC(=O)N1CCc2c(cccc2-c2c(C)nc(C(N)=O)c3[nH]c4c(c23)CC2(CC4)CC2)C1 [Compound 7-26, 4′-(2-acryloyl-1,2,3,4-tetrahydroisoquinolin-5-yl)-3′-methyl-5′,7′,8′,9′-tetrahydrospiro[cyclopropane-1,6′-pyrido[3,4-b]indole]-1′-carboxamide] |
| 10 to 100 nM | 10 to 100 nM | – | C=CC(=O)N1CCc2c(cccc2-c2cnc(C(N)=O)c3[nH]c4c(c23)CC(F)(F)CC4)C1 [Compound 7-29, 4-(2-acryloyl-1,2,3,4-tetrahydroisoquinolin-5-yl)-6,6-difluoro-6,7,8,9-tetrahydro-5H-pyrido[3,4-b]indole-1-carboxamide] |
| < 10 nM | 10 to 100 nM | – | C=CC(=O)N1CCc2c(cccc2-c2ncc(C(N)=O)c3[nH]c4c(c23)CC2(CC4)CC2)C1 [Compound 7-30, 1′-(2-acryloyl-1,2,3,4-tetrahydroisoquinolin-5-yl)-5′,6′,7′,9′-tetrahydrospiro[cyclopropane-1,8′-pyrido[4,3-b]indole]-4′-carboxamide] |
| < 10 nM | < 10 nM | – | C=CC(=O)N1CCC=C(c2ccc(C(N)=O)c3[nH]c4c(c23)CSCC4)C1 [Compound 8-1, 9-(1-acryloyl-1,2,5,6-tetrahydropyridin-3-yl)-1,3,4,5-tetrahydrothiopyrano-[4,3-b]indole-6-carboxamide] |
| < 10 nM | 10 to 100 nM | – | CC#CC(=O)N[C@H]1CCCN(c2c(F)cc(C(N)=O)c3[nH]c4c(c23)CCN(C)CC4)C1 [Compound 9-5, (S)-10-(3-(but-2-ynamido)piperidin-1-yl)-9-fluoro-3-methyl-1,2,3,4,5,6-hexahydroazepino[4,5-b]indole-7-carboxamide] |
| 10 to 100 nM | 10 to 100 nM | – | C=CC(=O)N1CCc2c(cccc2-c2c(F)cc(C(N)=O)c3[nH]c4c(c23)CCN(C)CC4)C1 [Compound 9-6, 10-(2-acryloyl-1,2,3,4-tetrahydroisoquinolin-5-yl)-9-fluoro-3-methyl-1,2,3,4,5,6-hexahydroazepino[4,5-b]indole-7-carboxamide] |
| < 10 nM | < 10 nM | – | C=CC(=O)N1CCC[C@H](c2c(F)cc(C(N)=O)c3[nH]c4c(c23)CCC4)C1 [Compound 10-1, (R)-8-(1-acryloylpiperidin-3-yl)-7-fluoro-1,2,3,4-tetrahydrocyclopenta[b]-indole-5-carboxamide] |
| < 10 nM | < 10 nM | – | CC#CC(=O)N[C@@H]1C=C(c2c(F)cc(C(N)=O)c3[nH]c4c(c23)CCC4)CCC1 [Compound 10-3, 8-[(3 S)-3-(but-2-ynoylamino)cyclohexen-1-yl]-7-fluoro-1,2,3,4-tetrahydrocyclopenta[b]indole-5-carboxamide] |
| < 10 nM | < 10 nM | – | CC#CC(=O)N[C@H]1CCC=C(c2c(F)cc(C(N)=O)c3[nH]c4c(c23)CCC4)C1 [Compound 10-4, 8-[(5S)-5-(but-2-ynoylamino)cyclohexen-1-yl]-7-fluoro-1,2,3,4-tetrahydrocyclopenta[b]indole-5-carboxamide] |
| < 10 nM | 10 to 100 nM | – | CC#CC(=O)N(C)[C@H]1CCCN(c2c(F)cc(C(N)=O)c3[nH]c4c(c23)CCC4)C1 [Compound 10-7, 8-[(3S)-3-[but-2-ynoyl(methyl)amino]-1-piperidyl]-7-fluoro-1,2,3,4-tetrahydrocyclopenta[b]indole-5-carboxamide] |
| < 10 nM | < 10 nM | – | CC#CC(=O)N[C@H]1C[C@H](F)CN(c2c(F)cc(C(N)=O)c3[nH]c4c(c23)CCC4)C1 [Compound 10-8, 8-((3S,5S)-3-(but-2-ynamido)-5-fluoropiperidin-1-yl)-7-fluoro-1,2,3,4-tetrahydrocyclopenta[b]indole-5-carboxamide] |
| 10 to 100 nM | 10 to 100 nM | – | CC#CC(=O)N[C@H]1C[C@@H](F)CN(c2c(F)cc(C(N)=O)c3[nH]c4c(c23)CCC4)C1 [Compound 10-9, 8-((3S,5R)-3-(but-2-ynamido)-5-fluoro-piperidin-1-yl)-7-fluoro-1,2,3,4-tetrahydrocyclopenta[b]indole-5-carboxamide] |

| SMILES | IC50 [1] | IC50 ([2]; Homo sapiens, Ramos) | IC50 [2] |
| --- | --- | --- | --- |
| C=CC(=O)N1CCC=C(c2ccc(C(N)=O)c3[nH]c4c(c23)C[Si](C)(C)CC4)C1 [Compound 9-7, 9-(1-acryloyl-1,2,5,6-tetrahydropyridin-3-yl)-2,2-dimethyl-2,3,4,5-tetrahydro-1H-silino[4,3-b]indole-6-carboxamide] | < 10 nM | 10 to 100 nM | – |

From patent US20220009920A1 (GB005, Inc., priority 2020, published 2022)
